Data on 1 compound can be found in article PMC6934184, “Selective DNA-PKcs inhibition extends the therapeutic index of localized radiotherapy and chemotherapy” (The Journal of Clinical Investigation, 2019).

This test deals with T1, PRKD1 (PKC mu) (Homo sapiens, UniProt Q15139).
T1 construct: purchased Thermo Fisher Scientific (Life Technologies) SelectScreen
The test is described as follows: SelectScreen Z'LYTE. In kind it is biochemical. The essentials:
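SelectScreen broad panel; activity (Z'LYTE, Adapta) plus binding formats. ATP: Km app for CSF1R Z'LYTE; 10 for CAMK1 Adapta. Readout = % per kinase.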

The structures appear in SMILES notation.

T1 sequence (Q15139 whole entry): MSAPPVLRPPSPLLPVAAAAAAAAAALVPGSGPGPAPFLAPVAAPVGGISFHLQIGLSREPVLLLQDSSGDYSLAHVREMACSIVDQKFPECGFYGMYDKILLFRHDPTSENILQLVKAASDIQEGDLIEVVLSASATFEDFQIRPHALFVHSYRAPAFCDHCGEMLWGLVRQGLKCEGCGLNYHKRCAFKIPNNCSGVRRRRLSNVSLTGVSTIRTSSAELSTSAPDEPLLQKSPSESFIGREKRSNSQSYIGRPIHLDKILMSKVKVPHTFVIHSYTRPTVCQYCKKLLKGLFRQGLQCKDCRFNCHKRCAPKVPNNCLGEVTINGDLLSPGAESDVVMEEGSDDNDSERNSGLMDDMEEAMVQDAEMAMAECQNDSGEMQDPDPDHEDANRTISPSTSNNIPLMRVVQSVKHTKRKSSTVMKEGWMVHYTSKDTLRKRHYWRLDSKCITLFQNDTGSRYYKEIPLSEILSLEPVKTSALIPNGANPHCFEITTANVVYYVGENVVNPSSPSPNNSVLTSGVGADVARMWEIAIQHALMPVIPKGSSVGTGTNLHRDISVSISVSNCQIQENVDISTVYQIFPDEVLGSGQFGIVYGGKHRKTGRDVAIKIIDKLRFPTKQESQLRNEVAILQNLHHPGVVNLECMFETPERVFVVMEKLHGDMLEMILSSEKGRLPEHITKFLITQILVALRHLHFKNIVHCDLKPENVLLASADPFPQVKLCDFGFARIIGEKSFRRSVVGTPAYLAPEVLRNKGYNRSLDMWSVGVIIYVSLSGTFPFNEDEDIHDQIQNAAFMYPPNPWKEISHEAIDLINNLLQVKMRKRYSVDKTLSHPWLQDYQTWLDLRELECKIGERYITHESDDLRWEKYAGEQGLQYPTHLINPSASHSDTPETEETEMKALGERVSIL

One may read the inhibition as the drop in the measured response relative to a control, in per cent. For `CN(C(=O)CN1CCOCC1)c1ccc2sc3c(-c4cccc5c(=O)cc(N6CC7CCC(C6)O7)oc45)cccc3c2c1` [NU5455], the inhibition at 1 µM is -8.5%.
